Data taken from article PMC9539280 (Advanced Science, 2022).
Counter-ions that a name gives are not always drawn. Like-named read-outs stand apart in the source and are kept apart here.

Legend:
[1] = test system: hCMs
[2] = test system: hEHTs (human engineered heart tissues)
[3] = test system: hCMs; remark: listed apart in the source
[4] = test system: hCMs (human pluripotent stem cell-derived cardiomyocytes); assay: Cytotoxicity assay, calcein-AM/PI double staining, relative cell viability; type: cell-based; settings: for cell viability of hCMs: 6 days, escalating concentrations (0.03-3 or 1-30 × 10^−6 M), calcein-AM/PI; for effects on normal hCMs (viability, apoptosis, sarcomere organization): absence of remdesivir, 3 μM and 10 μM
Protocol: (§1) hCMs were dissociated with 0.25% trypsin/EDTA (25200072, Gibco) and then seeded into 384‐well plates at the density of 8 × 10^3 cells per well. 24 h after seeding, cells were exposed to the drugs at the indicated concentrations for 6 days. Culture media were fully changed every 3 days with new drug supplementation. After drug treatment, cells were stained with calcein‐AM/PI/Hoechst for 20 min using calcein‐AM/PI double staining kit (C542, DOJINDO). Images were captured by the Operetta CLS High‐Content Analysis System (PerkinElmer). Number of live cells (calcein‐AM+/PI‐) and dead cells (PI+) was quantified by using the Harmony 4.9 software (PerkinElmer). Number of live cells was used to calculate the “relative cell viability” as follows (1) relarivecellviability=numberoflivecellsineachtreatment/numberoflivecellsinDMSOcontrol×100%

[5] = test system: hCMs; remark: listed apart in the source
[6] = test system: hCMs; remark: listed apart in the source
[7] = test system: hEHTs (human engineered heart tissues); remark: listed apart in the source
[8] = cited from earlier work
[9] = test system: hCMs; assay: Spontaneous calcium transient measurement (Fluo-4) in hCMs; settings: 6 days; for calcium transient amplitude: escalating concentrations (1-20 μM)
[10] = test system: hCMs; assay: Sarcomere organization by α-actinin immunostaining in hCMs; settings: 6 days
[11] = test system: hCMs; assay: Calcium measurement in hCMs under electrical field stimulation
[12] = test system: hCMs; assay: TUNEL apoptosis assay in hCMs; settings: 6 days
[13] = test system: hEHTs (human engineered heart tissues); assay: TUNEL/α-actinin staining of hEHTs; settings: for toxicity to hEHTs: 2 × 10^−6 and 5 × 10^−6 M for 3 days
[14] = test system: hCMs; set-up: method as in PMID 34142159; settings: ref 25a; cited from earlier work
[15] = test system: hCMs; assay: Mitochondrial (MitoSox) and intracellular (DCFH-DA) ROS measurement in hCMs; type: cell-based, human; settings: remdesivir 10 μM, 4 or 6 days
Protocol: Mitochondrial‐associated ROS and intracellular ROS were measured using MitoSox Red Mitochondrial Superoxide Indicator (M‐36008, ThermoFisher) and DCFH‐DA (S0033S, Beyotime), respectively. For mitochondrial‐associated ROS measurement, hCMs were loaded with 4 × 10^−6 M MitoSox dye in Hanks' balanced salt solution buffer for 15 min at 37 °C and washed twice with PBS. The MitoSox fluorescence (excitation/emission = 510/580 nm) was detected and quantified by the Operetta CLS High‐Content Analysis System. For intracellular ROS measurement, hCMs were loaded with 10 × 10^−6 M DCFH‐DA in serum‐free medium for 20 min at 37 °C and washed twice with serum‐free medium. The DCFH fluorescence (excitation/emission = 488/525 nm) was detected and quantified by the Operetta CLS High‐Content Analysis System.

[16] = test system: hEHTs (human engineered heart tissues); assay: Contractile force / spontaneous contractility of hEHTs
[17] = reported clinical cardiotoxic effects of the repurposed drug; 10a,b, 10c, 41, 42; cited from earlier work
[18] = test system: mitochondrial permeability transition pore; settings: not told; cited from earlier work
[19] = test system: remdesivir-treated hCMs; assay: High-throughput screening and validation of compounds protective against remdesivir (cell viability); type: cell-based, human; settings: for remdesivir-induced cardiotoxicity (cell viability), protection: 10 × 10^−6 or 25 × 10^−6 M remdesivir for 6 days with co-administration
Protocol: as §1
hCMs were seeded into 384‐well plates at a density of 8 × 10^3 cells per well. 24 h after seeding, the cells were treated with either 25 × 10^−6 M remdesivir alone or remdesivir with the chemicals from a Bioactive Compound Library (Topscience) consisted of 2464 natural compounds and US FDA‐approved drugs for 6 days. Chemicals at the concentration of 5 × 10^−6 M were transferred to the plates by using a Tecan Freedom EVO 150 liquid handler.

[20] = spontaneous, escalating concentrations (lopinavir: high dosage only)
[21] = 2 × 10^−6 M remdesivir and 2 × 10^−6 M astaxanthin for 2 days

## Cc1cccc(/C=N/Nc2cc(N3CCOCC3)nc(OCCc3ccccn3)n2)c1 [Apilimod, apilimod]
[1]
  calcium transient amplitude: without apparently affecting
  time to 50% decay of the calcium transients: increased
  time to peak of the calcium transients: increased
[2]
  toxicity to hEHTs: toxic to hEHTs
[3]
  sarcomere organization of hCMs: sarcomeric disarray
[4]
  cell viability of hCMs: dose‐dependent decrease
[5]
  intracellular calcium handling properties of hCMs: impair
[6]
  apoptosis of hCMs (TUNEL): increased apoptosis
[7]
  abnormal beating of hEHTs (spontaneous contractility): more severe
  contractile force of hEHTs: much lower
  hEHT function (tissue level cardiotoxicity): weaken hEHT function
  passive force of hEHTs: increases of the passive force
[8]; in vivo
  Cmax: 0.27 µM

## Cc1cccc(C)c1OCC(=O)N[C@@H](Cc1ccccc1)[C@@H](O)C[C@H](Cc1ccccc1)NC(=O)[C@H](C(C)C)N1CCCNC1=O [Lopinavir, lopinavir]
[9]; spontaneous
  calcium transient amplitude: tended to decrease
[9]; [20]
  time to 50% decay of the calcium transients: significantly increased
  time to peak of the calcium transients: significantly increased
[10]
  sarcomere organization of hCMs: sarcomeric disarray
[11]
  intracellular calcium handling properties of hCMs: impair
[12]
  apoptosis of hCMs (TUNEL): increased apoptosis
[4]
  cell viability of hCMs: dose‐dependent decrease
[13]
  toxicity to hEHTs: toxic to hEHTs
[8]; in vivo
  Cmax: 42.1 µM

## CCC(CC)COC(=O)[C@H](C)N[P@](=O)(OC[C@H]1O[C@@](C#N)(c2ccc3c(N)ncnn23)[C@H](O)[C@@H]1O)Oc1ccccc1 [Remdesivir, remdesivir]
[14]
  ROS levels in hCMs: does not alter
  mitochondrial fragmentation: induce mitochondrial fragmentation
  mitochondrial respiration: suppress mitochondrial respiration
[15]; MitoSox and DCFH-DA
  ROS level in hCMs: did not alter
[16]
  hEHT function (tissue level cardiotoxicity): weaken hEHT function
[16]; 2 × 10^−6 or 5 × 10^−6 M for 3 days
  abnormal beating of hEHTs (spontaneous contractility): more severe
[16]; 3 days
  passive force of hEHTs: increases of the passive force
[16]; progressive stretch 0-12%, 3 days
  contractile force of hEHTs: much lower
[10]
  sarcomere organization of hCMs: sarcomeric disarray
[11]
  intracellular calcium handling properties of hCMs: impair
[12]
  apoptosis of hCMs (TUNEL): increased apoptosis
[4]
  cell viability of hCMs: dose‐dependent decrease
[13]
  toxicity to hEHTs: toxic to hEHTs
[17]
  Cardiotoxic effects: Cardiac arrest,^[ [10a,b] ^] heart failures,^[ [10c] ^] arrhythmias^[ [10c] ^]
[8]; read-out: C max, maximum plasma concentration, ref U.S. FDA or published literature
  Cmax: 9.03 µM

## CC(C)c1nc(CN(C)C(=O)N[C@H](C(=O)N[C@@H](Cc2ccccc2)C[C@H](O)[C@H](Cc2ccccc2)NC(=O)OCc2cncs2)C(C)C)cs1 [Ritonavir, ritonavir]
[9]; spontaneous
  calcium transient amplitude: tended to decrease
[10]
  sarcomere organization of hCMs: sarcomeric disarray
[11]
  intracellular calcium handling properties of hCMs: impair
[12]
  apoptosis of hCMs (TUNEL): increased apoptosis
[13]
  toxicity to hEHTs: toxic to hEHTs
[17]
  Cardiotoxic effects: QTc prolongation and arrhythmias^[ [9] ^]
[8]; in vivo
  Cmax: 1.32 µM

## CC1=C(/C=C/C(C)=C/C=C/C(C)=C/C=C/C=C(C)/C=C/C=C(C)/C=C/C2=C(C)C(=O)[C@@H](O)CC2(C)C)C(C)(C)C[C@H](O)C1=O [astaxanthin]
[15]; Asta 10 μM, Vc 50 μg/ml, Vb1 10 μg/ml, NAC 1 mM, GSH 25 μg/ml
  could alter the level of ROS in hCMs when co-stimulated with remdesivir: neither
[18]
  opening of mitochondrial permeability transition pore: inhibit the opening
[16]; [21]
  decrease in contractile force induced by remdesivir in hEHTs: significantly resolved
  proportion of abnormal beating induced by remdesivir in hEHTs: significantly resolved
[9]; 10 × 10^−6 M remdesivir plus 10 × 10^−6 M astaxanthin
  remdesivir-induced alterations in calcium transient duration: reversed
[11]; 10 × 10^−6 M remdesivir plus 10 × 10^−6 M astaxanthin, 6 days
  frequency of abnormal beating caused by remdesivir: relieved dramatically
[4]
  effects on normal hCMs (viability, apoptosis, sarcomere organization): little effects
[13]; [21]
  cell apoptosis in hEHTs exposed to remdesivir: remarkably decreased
[19]
  protective effect against remdesivir compared with the other hits: most prominent protective effect
  remdesivir-induced cardiotoxicity (cell viability), protection: confirmed to reduce

## CON=C(C(=O)NC1C(=O)N2C(C(=O)O)=C(CSC(=O)c3ccco3)CSC12)c1csc(N)n1 (stereo not shown) [ceftiofur hydrochloride]
[4]
  effects on normal hCMs (viability, apoptosis, sarcomere organization): little effects
[19]
  remdesivir-induced cardiotoxicity (cell viability), protection: confirmed to reduce

## OCCOCCN1CCN(C2=Nc3ccccc3Sc3ccccc32)CC1 [quetiapine fumarate]
[4]
  effects on normal hCMs (viability, apoptosis, sarcomere organization): little effects
[19]
  remdesivir-induced cardiotoxicity (cell viability), protection: confirmed to reduce
